Drawing on PubChem BioAssay (NCI), this text covers TGI and GI50 for nine molecules.

The TGI is the concentration giving total growth inhibition. Higher therefore signals less potent growth arrest. The term GI50 denotes the concentration giving 50% growth inhibition.

Where “and” joins values, the source holds several entries; their conditions need not be identical. Equal values may be shown once.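 How tested: cells in 96-well plates exposed to compound for 48 hours at five concentrations. Here, GI50 denotes the concentration required for 50% inhibition of growth. TGI: concentration producing complete growth inhibition.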

Common to all, as to assay: DTP human tumour cell line panel, 48 h
Test [1] relates to SK-MEL-2 melanoma.
Test [2] has as its system NCI-H226 lung.
Test [3] deals with HCT-116 colon.
Test [4] has as its system TK-10 renal.
In test [5] the test system is U251 CNS.
For test [6], the system named is 786-0 renal.
The test system of test [7] is MOLT-4 leukemia.
Test [8] deals with A498 renal.
Test [9] has as its system IGROV1 ovarian.
Test [10] has as its system M14 melanoma.

With `COC(=O)/C(=N\NC(N)=O)C(C(=O)C=C(C)C)C(=O)C(=O)Nc1ccc(Cl)c(Cl)c1` (stereo not drawn), the TGI in [1], in test [2], in test [3], in test [4], in test [5] and in test [6] was over 100 µM in each case. The concentration for total growth inhibition (TGI) in [7], in test [8], in test [9] and in test [10] was over 100 µM in each case.
Regarding `Cc1nccc2c3ccc(OCc4cn(-c5ccc(Cl)cc5)nn4)cc3n(CC(C)C)c12`, the GI50 in [1] was 5.59 µM; in test [2] it was 3.47 µM; in test [3], 1.3 µM; in [4], 6.89 µM; in [5], 2.62 µM; in test [6], 2.09 µM. In addition, the GI50 in test [7] is 1.14 µM; in test [8] it was 1.39 µM; in test [9], 4.99 µM; in [10], 1.61 µM. Moreover, the TGI in test [1] came out at 22.5 µM; in test [2] it was 13.7 µM; in test [3], 5.65 µM; in [4] it was 19.5 µM; in test [5], 13.3 µM; in test [6] it was 8.33 µM. In addition, the TGI stood at 6.54 µM in [7], 9.32 µM in test [8], 18.7 µM in test [9] and 13.9 µM in test [10].
In the case of `CCOP1(=O)C=C(C)C(=C(Cl)Cl)C(C)=C1` (stereo not drawn), the total growth inhibition concentration (TGI) in test [1] is 56.2 µM; in test [2], 21.2 µM; in test [3], 7.13 µM and 13.3 µM; in test [4], 77.2 µM; in [5] it was 50.9 µM; in test [6] it was over 100 µM. The TGI was determined as 42.9 µM in test [7], 76.3 µM in test [8], 90.9 µM in [9] and 24.6 µM in test [10]. The values for the GI50 in test [2], in test [3] and in test [10] were 3.44 µM, 3.33 µM and 10.7 µM, respectively.
In the case of `O=c1c(Cl)cc2nc3ccccc3sc-2c1Cl`, the total growth inhibition concentration (TGI) in test [1] worked out at 27.1 µM; in test [2], 32.3 µM; in [3], 32.5 µM; in test [4], 33.1 µM; in test [5], 43.2 µM; in test [6], 45.8 µM. Moreover, the total growth inhibition concentration (TGI) in test [7] was over 100 µM; in test [8], 80.7 µM; in test [9], 28.1 µM; in test [10], 37.2 µM.
For the molecule `CCCN1CCC(c2ccc(Nc3nc(Nc4cc(F)ccc4C(N)=O)c4cc[nH]c4n3)c(OC)c2)CC1`, the GI50 is 1.86 µM in test [1]; 3.83 µM in [2]; 0.178 µM in test [3]; 1.07 µM in [4]; 0.509 µM in test [5]; 3.07 µM in [6]. In addition, the GI50 in test [7] is 4.4 µM; in test [8] it was 1.17 µM; in test [9] it was 1.87 µM; in test [10] it was 1.58 µM. For the same molecule, the total growth inhibition concentration (TGI) in [1] turned out to be 5.78 µM; in [2] it was 8.91 µM; in [3], 3.61 µM; in test [4], 6.33 µM; in [5], 1.97 µM; in test [6], 7.52 µM. The TGI in [7] was found to be 12.3 µM; in [8], 5.07 µM; in [9], 7.44 µM; in [10], 5.48 µM.
Regarding `C/C(=N/Nc1nc(C)cc(=O)[nH]1)C(=O)O`, the total growth inhibition concentration (TGI) in [1], in [2], in test [3], in test [4], in test [5] and in test [6] was over 100 µM in each case. The TGI in [7], in test [8], in test [9] and in test [10] was over 100 µM in each case.
`COc1ccc(N(C)c2nc(Cl)nc3cnn(C)c23)cc1`: the GI50 was under 0.01 µM in test [1]; under 0.01 µM in test [2]; under 0.01 µM in test [3]; over 68.6 µM in [4]; under 0.01 µM in [5]; under 0.01 µM in [6]. In addition, the GI50 is 0.0193 µM in test [7], under 0.01 µM in test [8], under 0.0189 µM in test [9] and under 0.01 µM in test [10]. Also, the total growth inhibition concentration (TGI) in test [1], in [2], in [3], in test [4], in [5] and in [6] was over 100 µM each time. The TGI is over 100 µM in [7], 0.178 µM in [8], over 100 µM in test [9] and over 100 µM in test [10].
For the molecule `C=CCc1c(O)c(C(=O)/C=C/c2ccccc2)c(OC)c2ccoc12`, the GI50 is 3.04 µM in test [1]; 1.48 µM in test [2]; 3.03 µM in test [3]; 4.96 µM in test [4]; 2.36 µM in test [5]; 4.12 µM in test [6]. In addition, the GI50 is 2.17 µM in test [7], 1.74 µM in [8], 3.35 µM in [9] and 5.36 µM in test [10]. Further, the total growth inhibition concentration (TGI) in test [1] was 13.8 µM; in test [2], 3.21 µM; in [3] it was 11.1 µM; in test [4], 17.3 µM; in [5], 7.46 µM; in test [6], 16.8 µM. Also, the TGI in test [7] was 16.6 µM; in test [8], 9.4 µM; in test [9] it was 11.6 µM; in test [10], 22.9 µM.
On to `COCc1c(-c2ccc(NC(=O)Nc3cc(C(F)(F)F)ccc3F)c(F)c2)c2c(N)ncnn2c1CN1CCOCC1`, for which the GI50 was 1.07 µM in test [1]; 0.0747 µM in test [2]; 1.7 µM in test [3]; 1.29 µM in test [4]; 2.56 µM in [5]; 2.76 µM in test [6]. For the same molecule, the GI50 in test [7] was 2.07 µM; in test [8], 0.0166 µM; in [9], 0.438 µM; in test [10] it was 1.5 µM. For the same molecule, the TGI is 2.58 µM in test [1]; 5.25 µM in test [2]; over 10 µM in [3]; 7.53 µM in [4]; over 10 µM in test [5]; over 10 µM in test [6]. In addition, the TGI in test [7] is 9.8 µM; in test [8], 0.248 µM; in [9], 7.06 µM; in test [10], over 10 µM.
